From patent US7247617B2, “Sixteen-member macrolide antiinfective agents” (Kosan Biosciences Incorporated, priority 2004, dated 2007)

Legend:
[1] = system: a series of bacterial strains; assay: Biological activity against a series of bacterial strains (overall statements); type: cell-based
Source text: Results for S. pneumoniae, S. aureus, S. epidermidis, and E. faecalis are provided in Table B. Data on activity against H. influenzae for selected compounds are presented in Table C.

[2] = system: S. aureus; assay: Biological activity against bacterial strains: S. aureus; type: cell-based, Staphylococcus aureus; set-up: unit not given here; settings: for Biological Activity, S. aureus ATCC6538p: strain ATCC6538p; for Biological Activity, S. aureus ATCC14154*: strain ATCC14154, macrolide resistant strain; for Biological Activity, S. aureus ATCC29213: strain ATCC29213; for Biological Activity, S. aureus ATCC33591*: strain ATCC33591, macrolide resistant strain; for Biological Activity, S. aureus ATCCBAA-39*: strain ATCCBAA-39, macrolide resistant strain; for Biological Activity, S. aureus ATCCBAA-44*: strain ATCCBAA-44, macrolide resistant strain
[3] = system: S. epidermidis; assay: Biological activity against bacterial strains: S. epidermidis; type: cell-based, Staphylococcus epidermidis; settings: strain ATCC12228
[4] = system: E. faecalis; assay: Biological activity against bacterial strains: E. faecalis; type: cell-based, Enterococcus faecalis; settings: strain ATCC51575
[5] = system: S. pneumoniae; assay: Biological activity against bacterial strains: S. pneumoniae; type: cell-based, Streptococcus pneumoniae; set-up: Biological Activity, S. pneumoniae ATCC6301 / Biological Activity, S. pneumoniae ATCC700671 / Biological Activity, S. pneumoniae ATCC700676* / Biological Activity, S. pneumoniae ATCC700677* / Biological Activity, S. pneumoniae ATCC700905* / Biological Activity, S. pneumoniae ATCC700906* / Biological Activity, S. pneumoniae ATCC49619: unit not given here; settings: for Biological Activity, S. pneumoniae ATCC6301: strain ATCC6301; for Biological Activity, S. pneumoniae ATCC49619: strain ATCC49619; for Biological Activity, S. pneumoniae ATCC700671: strain ATCC700671; for Biological Activity, S. pneumoniae ATCC700676*: strain ATCC700676, macrolide resistant strain; for Biological Activity, S. pneumoniae ATCC700677*: strain ATCC700677, macrolide resistant strain; for Biological Activity, S. pneumoniae ATCC700905*: strain ATCC700905, macrolide resistant strain; for Biological Activity, S. pneumoniae ATCC700906*: strain ATCC700906, macrolide resistant strain
[6] = system: Haemophilus Influenzae; assay: H. influenzae Activity; type: cell-based

Structure (SMILES): CCC1OC(=O)CC(O)C(C)C(OC2OC(C)C(O)C(N(C)C)C2O)C(CC=O)CC(C)C(=NOCC#Cc2cnc3ccccc3c2)C=CC(C)=CC1CO (single isomer, unassigned) [Compound E]
- activity of Z-configuration oxime versus its E counterpart (in words) [1]: more active than compound D
- Biological Activity, S. aureus ATCC6538p [2]: 0.098
- Biological Activity, S. aureus ATCC14154* [2]: 0.39
- Biological Activity, S. aureus ATCC29213 [2]: 0.39
- Biological Activity, S. aureus ATCC33591* [2]: >12.5
- Biological Activity, S. aureus ATCCBAA-39* [2]: >12.5
- Biological Activity, S. aureus ATCCBAA-44* [2]: >12.5
- Biological Activity, S. epidermidis ATCC12228 [3]: 0.098
- Biological Activity, E. faecalis ATCC51575 [4]: >12.5
- Biological Activity, S. pneumoniae ATCC6301 [5]: 0.025
- Biological Activity, S. pneumoniae ATCC49619 [5]: 0.025
- Biological Activity, S. pneumoniae ATCC700671 [5]: 0.025
- Biological Activity, S. pneumoniae ATCC700676* [5]: 0.025
- Biological Activity, S. pneumoniae ATCC700677* [5]: >12.5
- Biological Activity, S. pneumoniae ATCC700905* [5]: 0.049
- Biological Activity, S. pneumoniae ATCC700906* [5]: >12.5

Structure (SMILES): CCC1OC(=O)CC(O)C(C)C(OC2OC(C)C(O)C(N(C)C)C2O)C(CCN2CC(C)CC(C)C2)CC(C)C(=O)C=CC(C)=CC1CO (centres unmarked) [Compound 8, 20-Deoxy(3,5-dimethyl-1-piperidine)OMT, reference compound]
- antibiotic / antibacterial activity (in words) [1]: no antibiotic activity
- Biological Activity, S. aureus ATCC6538p [2]: 0.39
- Biological Activity, S. aureus ATCC14154* [2]: 1.56
- Biological Activity, S. aureus ATCC29213 [2]: 1.56
- Biological Activity, S. aureus ATCC33591* [2]: >12.5
- Biological Activity, S. aureus ATCCBAA-39* [2]: >12.5
- Biological Activity, S. aureus ATCCBAA-44* [2]: >12.5
- Biological Activity, S. epidermidis ATCC12228 [3]: 0.78
- Biological Activity, E. faecalis ATCC51575 [4]: >12.5
- Biological Activity, S. pneumoniae ATCC6301 [5]: 0.39
- Biological Activity, S. pneumoniae ATCC49619 [5]: 0.78
- Biological Activity, S. pneumoniae ATCC700671 [5]: 0.78
- Biological Activity, S. pneumoniae ATCC700676* [5]: 1.56
- Biological Activity, S. pneumoniae ATCC700677* [5]: >12.5
- Biological Activity, S. pneumoniae ATCC700905* [5]: 1.56
- Biological Activity, S. pneumoniae ATCC700906* [5]: >12.5

Structure (SMILES): CCC1OC(=O)CC(O)C(C)C(OC2OC(C)C(O)C(N(C)C)C2O)C(CCN2CC(C)CC(C)C2)CC(C)C(=NO)C=CC(C)=CC1CO (centres unmarked) [Compound 9, 20-deoxy(3,5-dimethyl-1-piperidine)OMT 9-oxime, reference compound]
- antibiotic / antibacterial activity (in words) [1]: no antibiotic activity

Structure (SMILES): CCC1OC(=O)CC(O)C(C)C(OC2OC(C)C(O)C(N(C)C)C2O)C(CC=O)CC(C)C(=NOCC=Cc2cnc3ccccc3c2)C=CC(C)=CC1COC(=O)NCc1ccccc1 (centres unmarked) [Compound FF]
- Biological Activity, S. aureus ATCC6538p [2]: 1.56
- Biological Activity, S. aureus ATCC14154* [2]: 6.25
- Biological Activity, S. aureus ATCC29213 [2]: 3.12
- Biological Activity, S. aureus ATCC33591* [2]: 12.5
- Biological Activity, S. aureus ATCCBAA-39* [2]: >12.5
- Biological Activity, S. aureus ATCCBAA-44* [2]: >12.5
- Biological Activity, S. epidermidis ATCC12228 [3]: 3.12
- Biological Activity, E. faecalis ATCC51575 [4]: >12.5
- Biological Activity, S. pneumoniae ATCC6301 [5]: 0.2
- Biological Activity, S. pneumoniae ATCC49619 [5]: 0.2
- Biological Activity, S. pneumoniae ATCC700671 [5]: 0.2
- Biological Activity, S. pneumoniae ATCC700676* [5]: 0.049
- Biological Activity, S. pneumoniae ATCC700677* [5]: 0.2
- Biological Activity, S. pneumoniae ATCC700905* [5]: 0.098
- Biological Activity, S. pneumoniae ATCC700906* [5]: >12.5
- H. influenzae Activity, strain ATCC9006 [6]: 12.5
- H. influenzae Activity, strain ATCC49766 [6]: 12.5

Structure (SMILES): CC[C@H]1OC(=O)C[C@@H](O)[C@H](C)[C@@H](OC2OC(C)C(O)C(N(C)C)C2O)[C@@H](CC=O)C[C@@H](C)C(=N\OCCOc2ccccc2)/C=C/C(C)=C/C1CO (some centres unmarked) [Compound IIb]
- activity of Z-configuration oxime versus its E counterpart (in words) [1]: more active than compound Ia
- Biological Activity, S. aureus ATCC6538p [2]: 0.39
- Biological Activity, S. aureus ATCC14154* [2]: 1.56
- Biological Activity, S. aureus ATCC29213 [2]: 1.56
- Biological Activity, S. aureus ATCC33591* [2]: >12.5
- Biological Activity, S. aureus ATCCBAA-39* [2]: >12.5
- Biological Activity, S. aureus ATCCBAA-44* [2]: >12.5
- Biological Activity, S. epidermidis ATCC12228 [3]: 0.78
- Biological Activity, E. faecalis ATCC51575 [4]: >12.5
- Biological Activity, S. pneumoniae ATCC6301 [5]: 0.025
- Biological Activity, S. pneumoniae ATCC49619 [5]: 0.20
- Biological Activity, S. pneumoniae ATCC700671 [5]: 0.20
- Biological Activity, S. pneumoniae ATCC700676* [5]: 0.025
- Biological Activity, S. pneumoniae ATCC700677* [5]: 1.56
- Biological Activity, S. pneumoniae ATCC700905* [5]: 0.20
- Biological Activity, S. pneumoniae ATCC700906* [5]: >12.5

Structure (SMILES): CCC1OC(=O)CC(O)C(C)C(OC2OC(C)C(O)C(N(C)C)C2O)C(CC=O)CC(C)C(=NOCCCCc2cnc3ccccc3c2)C=CC(C)=CC1CO (centres unmarked) [Compound J]
- Biological Activity, S. aureus ATCC6538p [2]: 0.025
- Biological Activity, S. aureus ATCC14154* [2]: 0.20
- Biological Activity, S. aureus ATCC29213 [2]: 0.20
- Biological Activity, S. aureus ATCC33591* [2]: >12.5
- Biological Activity, S. aureus ATCCBAA-39* [2]: >12.5
- Biological Activity, S. aureus ATCCBAA-44* [2]: >12.5
- Biological Activity, S. epidermidis ATCC12228 [3]: 0.20
- Biological Activity, E. faecalis ATCC51575 [4]: >12.5
- Biological Activity, S. pneumoniae ATCC6301 [5]: 0.025
- Biological Activity, S. pneumoniae ATCC49619 [5]: 0.049
- Biological Activity, S. pneumoniae ATCC700671 [5]: 0.025
- Biological Activity, S. pneumoniae ATCC700676* [5]: 0.025
- Biological Activity, S. pneumoniae ATCC700677* [5]: 0.025
- Biological Activity, S. pneumoniae ATCC700905* [5]: 0.025
- Biological Activity, S. pneumoniae ATCC700906* [5]: >12.5
- H. influenzae Activity, strain ATCC9006 [6]: 6.25
- H. influenzae Activity, strain ATCC49766 [6]: 6.25
- decrease in activity compared to OMT ([6]; strains ATCC9006 and ATCC49766): ~4 fold

Structure (SMILES): CC[C@H]1OC(=O)C[C@@H](O)[C@H](C)[C@@H](O[C@@H]2O[C@H](C)[C@@H](O)[C@H](N(C)C)[C@H]2O)[C@@H](CC=O)C[C@@H](C)C(=O)/C=C/C(C)=C/[C@@H]1CO [OMT, 5-O-mycaminosyltylonolide, reference compound]
- Biological Activity, S. aureus ATCC6538p [2]: 0.39
- Biological Activity, S. aureus ATCC14154* [2]: 1.56
- Biological Activity, S. aureus ATCC29213 [2]: 0.78
- Biological Activity, S. aureus ATCC33591* [2]: >12.5
- Biological Activity, S. aureus ATCCBAA-39* [2]: >12.5
- Biological Activity, S. aureus ATCCBAA-44* [2]: >12.5
- Biological Activity, S. epidermidis ATCC12228 [3]: 0.39
- Biological Activity, E. faecalis ATCC51575 [4]: >12.5
- Biological Activity, S. pneumoniae ATCC6301 [5]: 0.025
- Biological Activity, S. pneumoniae ATCC49619 [5]: 0.098
- Biological Activity, S. pneumoniae ATCC700671 [5]: 0.049
- Biological Activity, S. pneumoniae ATCC700676* [5]: 0.78
- Biological Activity, S. pneumoniae ATCC700677* [5]: 6.25
- Biological Activity, S. pneumoniae ATCC700905* [5]: 0.78
- Biological Activity, S. pneumoniae ATCC700906* [5]: >12.5
- H. influenzae Activity, strain ATCC9006 [6]: 1.56
- H. influenzae Activity, strain ATCC49766 [6]: 1.56
- H. influenzae Activity, strain EH001 ([6]; strain EH001): 3.12
- H. influenzae Activity, strain EH002 ([6]; strain EH002): 6.25
- H. influenzae Activity, strain EH003 ([6]; strain EH003): 1.56
